Earlier results as cited in US20100330607A1, “PHOTOSWITCH-ENABLED ION CHANNEL ASSAY SYSTEM” (Photoswitch Biosciences, Inc., priority 2009, published 2010).
Like-named read-outs stand apart in the source and are kept apart here. Values belong to the molecule of their own block, whether it stands above or below them.

Tests used:
[1] = read-out: Kd for Ca^2+
late INa [2] = conditions: ventricular myocytes from dog hearts
late INa [3] = conditions: ventricular myocytes from guinea-pig hearts
[4] = in the dark, in solution

Kd [1]: 390 nM
Molecule: Cc1ccc(N(CC(=O)O)CC(=O)O)c(OCCOc2cc(-c3c4cc(Cl)c(=O)cc-4oc4cc(O)c(Cl)cc34)ccc2N(CC(=O)O)CC(=O)O)c1 [Fluo-3]

Molecule: COc1ccccc1OCC(O)CN1CCN(CC(=O)Nc2c(C)cccc2C)CC1 (centres unmarked) [ranolazine]
inhibition of the late INa (late INa [2]): concentration-, voltage- and frequency-dependent inhibition
inhibition of the late INa (late INa [3]): concentration-, voltage- and frequency-dependent inhibition

Kd [1]: 345 nM
Molecule: Fluo-4

Molecule: Maleimide-Azobenzene-Glutamate [MAG]
rate of thermal relaxation, from cis to trans [4]: about 18 mins
